Here are results for 27 compounds from US10894784B2, “Heteroarylbenzimidazole compounds” (BAYER PHARMA AKTIENGESELLSCHAFT, priority 2015, dated 2021).

Molecules are shown by their SMILES.

The target in one test is TBK1 (Homo sapiens (Human), UniProt Q9UHD2). Kind of test: TBK1 low ATP kinase assay (in vitro assay 1). It counts as biochemical. The conditions noted are these: TBK1 low ATP kinase assay IC50, in vitro assay 1.
Sequence of TBK1 (Q9UHD2 whole entry): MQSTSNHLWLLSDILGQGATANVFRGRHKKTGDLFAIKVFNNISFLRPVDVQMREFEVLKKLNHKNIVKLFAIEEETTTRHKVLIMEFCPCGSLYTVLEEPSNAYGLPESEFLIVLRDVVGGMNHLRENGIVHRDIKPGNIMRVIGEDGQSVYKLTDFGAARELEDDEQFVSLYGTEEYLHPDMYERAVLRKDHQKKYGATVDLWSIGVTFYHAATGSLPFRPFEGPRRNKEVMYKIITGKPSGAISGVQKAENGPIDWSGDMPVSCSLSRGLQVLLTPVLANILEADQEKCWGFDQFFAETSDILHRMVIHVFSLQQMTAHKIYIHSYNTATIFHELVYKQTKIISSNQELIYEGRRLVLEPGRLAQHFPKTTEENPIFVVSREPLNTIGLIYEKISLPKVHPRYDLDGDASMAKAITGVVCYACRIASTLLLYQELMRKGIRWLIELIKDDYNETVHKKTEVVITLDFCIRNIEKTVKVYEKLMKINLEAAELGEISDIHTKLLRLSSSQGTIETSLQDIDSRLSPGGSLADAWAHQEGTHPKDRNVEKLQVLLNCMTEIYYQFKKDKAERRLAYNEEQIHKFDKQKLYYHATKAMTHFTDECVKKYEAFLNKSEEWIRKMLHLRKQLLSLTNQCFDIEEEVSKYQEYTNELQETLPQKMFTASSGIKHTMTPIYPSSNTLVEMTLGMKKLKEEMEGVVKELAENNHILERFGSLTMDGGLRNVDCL
The IC50 is the concentration at which inhibition is half-maximal. Compound `Cc1cc(-c2ccc3nc(Nc4cc(C(C)N5CCN(C(=O)CC(F)(F)F)CC5)ccn4)[nH]c3c2)ncn1` (racemic) [Example 30.02.01, (rac)-3,3,3-trifluoro-1-{4-[1-(2-{[6-(6-methylpyrimidin-4-yl)-1H-benzimidazol-2-yl]amino}pyridin-4-yl)ethyl]piperazin-1-yl}propan-1-one] had an IC50 of 4.46 nM.

Still in this test, the particulars now being: in vitro assay 1, read-out: TBK1 low ATP kinase assay IC50.
Consider `CC(c1ccnc(Nc2nc3ccc(-c4ccnn4C(C)C)cc3[nH]2)c1)N1CCN(C(=O)C2CC2)CC1` (single isomer, unassigned) [Example 72.03, cyclopropyl(4-{(1R or 1S)-1-[2-({6-[1-(propan-2-yl)-1H-pyrazol-5-yl]-1H-benzimidazol-2-yl}amino)pyridin-4-yl]ethyl}piperazin-1-yl)methanone], for which the IC50 came to 100 nM.

Regarding `COc1c(-c2ccc3nc(Nc4cc(CN5CCN(C(=O)OC(C)(C)C)CC5)ccn4)[nH]c3c2)ncnc1N(C)C` [Example 107.01.01, tert-butyl 4-{[2-({6-[6-(dimethylamino)-5-methoxypyrimidin-4-yl]-1H-benzimidazol-2-yl}amino)pyridin-4-yl]methyl}piperazine-1-carboxylate], the half-maximal inhibitory concentration (IC50) stood at 52 nM.

As for `CC(c1ccnc(Nc2nc3ccc(-c4ccnn4C)cc3[nH]2)c1)N1CCN(C(=O)C2CC2)CC1` (single isomer, unassigned) [Example 123.03, cyclopropyl{4-[(1R or 1S)-1-(2-{[6-(1-methyl-1H-pyrazol-5-yl)-1H-benzimidazol-2-yl]amino}pyridin-4-yl)ethyl]piperazin-1-yl}methanone], the IC50 was determined as 26 nM.

As to `CCC(=O)N1CCN(Cc2ccnc(Nc3nc4ccc(-c5nc(C)no5)cc4[nH]3)c2)CC1` [Example 101.28, 1-{4-[(2-{[6-(3-methyl-1,2,4-oxadiazol-5-yl)-1H-benzimidazol-2-yl]amino}pyridin-4-yl)methyl]piperazin-1-yl}propan-1-one], the IC50 was 210 nM.

On to `CC(c1ccnc(Nc2nc3ccc(-c4cnn(CC5CC5(F)F)c4)cc3[nH]2)c1)N1CCN(C(=O)OC(C)(C)C)CC1` (single isomer, unassigned) [Example 55.01, tert-butyl 4-[(1R or 1S)-1-(2-{[6-(1-{[(1RS)-2,2-difluorocyclopropyl]methyl}-1H-pyrazol-4-yl)-1H-benzimidazol-2-yl]amino}pyridin-4-yl)ethyl]piperazine-1-carboxylate], for which the IC50 is 4.05 nM.

Regarding `COc1cc(-c2ccc3nc(Nc4cc(CN5CCN(C(=O)CC(F)(F)F)CC5)ccn4)[nH]c3c2)ncn1` [Example 163.02, 3,3,3-trifluoro-1-{4-[(2-{[6-(6-methoxypyrimidin-4-yl)-1H-benzimidazol-2-yl]amino}pyridin-4-yl)methyl]piperazin-1-yl}propan-1-one], the IC50 worked out at 19 nM.

With `COc1cnccc1-c1ccc2nc(Nc3cc(CN4CCN(C(=O)C(C)(C)C)CC4)ccn3)[nH]c2c1` [Example 04.06, 1-{4-[(2-{[6-(3-methoxypyridin-4-yl)-1H-benzimidazol-2-yl]amino}pyridin-4-yl)methyl]piperazin-1-yl}-2,2-dimethylpropan-1-one], the IC50 was 30.2 nM.

As to `Cn1ccc(-c2ccc3nc(Nc4cc(CN5CCN(C(=O)C6CCC6)CC5)ccn4)[nH]c3c2)n1` [Example 40.04, cyclobutyl{4-[(2-{[6-(1-methyl-1H-pyrazol-3-yl)-1H-benzimidazol-2-yl]amino}pyridin-4-yl)methyl]piperazin-1-yl}methanone], the IC50 is 1390 nM.

`COc1cnccc1-c1ccc2nc(Nc3cc(CN4CCN(C(=O)CC(F)(F)F)CC4)ccn3)[nH]c2c1OCC(C)C` [Example 50.01, 3,3,3-trifluoro-1-{4-[(2-{[6-(3-methoxypyridin-4-yl)-7-(2-methylpropoxy)-1H-benzimidazol-2-yl]amino}pyridin-4-yl)methyl]piperazin-1-yl}propan-1-one]: the IC50 was determined as 499 nM.

With `COc1cc(-c2ccc3nc(Nc4cc(CN5CCN(C(=O)CC6CC6)CC5)ccn4)[nH]c3c2)c(F)cn1` [Example 03.04, 2-cyclopropyl-1-{4-[(2-{[6-(5-fluoro-2-methoxypyridin-4-yl)-1H-benzimidazol-2-yl]amino}pyridin-4-yl)methyl]piperazin-1-yl}ethanone], the IC50 amounted to 288 nM.

As for `Cc1noc(-c2ccc3nc(Nc4cc(CN5C[C@@H](C)N(C(=O)OC(C)(C)C)C[C@@H]5C)ccn4)[nH]c3c2)n1` [Example 16.02.01, tert-butyl (2R,5S)-2,5-dimethyl-4-[(2-{[6-(3-methyl-1,2,4-oxadiazol-5-yl)-1H-benzimidazol-2-yl]amino}pyridin-4-yl)methyl]piperazine-1-carboxylate], the IC50 stood at 2260 nM.

As for `Cc1cc(-c2ccc3nc(Nc4cc(CN5CCN(C(=O)C6CCC6)CC5)ccn4)[nH]c3c2)ncn1` [Example 30.01.02, cyclobutyl{4-[(2-{[6-(6-methylpyrimidin-4-yl)-1H-benzimidazol-2-yl]amino}pyridin-4-yl)methyl]piperazin-1-yl}methanone], the IC50 was 18.5 nM.

As to `CCOc1ncnc(-c2ccc3nc(Nc4cc(CN5CCN(C(=O)C6CC6)CC5)ccn4)[nH]c3c2)c1OC` [Example 167.03, cyclopropyl{4-[(2-{[6-(6-ethoxy-5-methoxypyrimidin-4-yl)-1H-benzimidazol-2-yl]amino}pyridin-4-yl)methyl]piperazin-1-yl}methanone], the IC50 was 41.3 nM.

As for `Cc1ncc(C)c(-c2ccc3nc(Nc4cc(CN5CCN(C(=O)OC(C)(C)C)CC5)ccn4)[nH]c3c2)n1` [Example 33.01, tert-butyl 4-[(2-{[6-(2,5-dimethylpyrimidin-4-yl)-1H-benzimidazol-2-yl]amino}pyridin-4-yl)methyl]piperazine-1-carboxylate], the IC50 turned out to be 3540 nM.

`COc1ccncc1-c1ccc2nc(Nc3cc(CN4CCN(C(=O)CC5CC5)CC4)ccn3)[nH]c2c1` [Example 14.02, 2-cyclopropyl-1-{4-[(2-{[6-(4-methoxypyridin-3-yl)-1H-benzimidazol-2-yl]amino}pyridin-4-yl)methyl]piperazin-1-yl}ethanone]: the IC50 is 283 nM.

`CC(C)Cc1nc(-c2ccc3nc(Nc4cc(CN5CCN(C(=O)CC(F)(F)F)CC5)ccn4)[nH]c3c2)n(C)n1` [Example 42.02, 3,3,3-trifluoro-1-(4-{[2-({6-[1-methyl-3-(2-methylpropyl)-1H-1,2,4-triazol-5-yl]-1H-benzimidazol-2-yl}amino)pyridin-4-yl]methyl}piperazin-1-yl)propan-1-one]: the IC50 is 397 nM.

As to `Cc1cc(-c2ccc3nc(Nc4cc(C(C)N5CCN(C(=O)OC(C)(C)C)CC5)ccn4)[nH]c3c2Cl)ncn1` (single isomer, unassigned) [Example 98.01, tert-butyl 4-[(1R or 1S)-1-(2-{[7-chloro-6-(6-methylpyrimidin-4-yl)-1H-benzimidazol-2-yl]amino}pyridin-4-yl)ethyl]piperazine-1-carboxylate], the IC50 worked out at 100 nM.

For `COc1cncnc1-c1ccc2nc(Nc3cc(CN4CCN(S(=O)(=O)N(C)C)CC4)ccn3)[nH]c2c1` [Example 35.01.15, 4-[(2-{[6-(5-methoxypyrimidin-4-yl)-1H-benzimidazol-2-yl]amino}pyridin-4-yl)methyl]-N,N-dimethylpiperazine-1-sulfonamide], the IC50 is 38 nM.

`O=C(CC(F)(F)F)N1CCN(Cc2ccnc(Nc3nc4ccc(-c5cc(N6CCC6)ncn5)cc4[nH]3)c2)CC1` [Example 147.02, 1-(4-{[2-({6-[6-(azetidin-1-yl)pyrimidin-4-yl]-1H-benzimidazol-2-yl}amino)pyridin-4-yl]methyl}piperazin-1-yl)-3,3,3-trifluoropropan-1-one]: the IC50 was 1.8 nM.

For `COc1cncnc1-c1ccc2nc(Nc3cc(CN4CCN(S(=O)(=O)C5CCCCC5)CC4)ccn3)[nH]c2c1` [Example 35.01.13, N-(4-{[4-(cyclohexylsulfonyl)piperazin-1-yl]methyl}pyridin-2-yl)-6-(5-methoxypyrimidin-4-yl)-1H-benzimidazol-2-amine], the IC50 worked out at 60.9 nM.

With `CN(C)c1cnc(-c2ccc3nc(Nc4cc(CN5CCN(C(=O)OC(C)(C)C)CC5)ccn4)[nH]c3c2)cn1` [Example 144.01, tert-butyl 4-{[2-({6-[5-(dimethylamino)pyrazin-2-yl]-1H-benzimidazol-2-yl}amino)pyridin-4-yl]methyl}piperazine-1-carboxylate], the IC50 turned out to be 510 nM.

`CC(C)(O)c1cc(-c2ccc3nc(Nc4cc(CN5CCN(C(=O)CC(F)(F)F)CC5)ccn4)[nH]c3c2)ncn1` [Example 96.02, 3,3,3-trifluoro-1-(4-{[2-({6-[6-(2-hydroxypropan-2-yl)pyrimidin-4-yl]-1H-benzimidazol-2-yl}amino)pyridin-4-yl]methyl}piperazin-1-yl)propan-1-one]: the IC50 worked out at 22 nM.

`O=C(C1CCC1)N1CCN(Cc2ccnc(Nc3nc4ccc(-c5nc(C6CC6)no5)cc4[nH]3)c2)CC1` [Example 17.06, cyclobutyl{4-[(2-{[6-(3-cyclopropyl-1,2,4-oxadiazol-5-yl)-1H-benzimidazol-2-yl]amino}pyridin-4-yl)methyl]piperazin-1-yl}methanone]: the IC50 stood at 61.3 nM.

As for `CN(C)c1cc(-c2ccc3nc(Nc4cc(CN5CCN(C(=O)CC(F)(F)F)CC5)ccn4)[nH]c3c2)ccn1` [Example 135.02, 1-(4-{[2-({6-[2-(dimethylamino)pyridin-4-yl]-1H-benzimidazol-2-yl)amino)pyridin-4-yl]methyl}piperazin-1-yl)-3,3,3-trifluoropropan-1-one], the IC50 amounted to 23 nM.

In the case of `CC(c1ccnc(Nc2nc3ccc(-c4cc(N5CCCC5)ncn4)cc3[nH]2)c1)N1CCN(C(=O)C2CC2)CC1` (single isomer, unassigned) [Example 117.02, cyclopropyl(4-{(1R or 1S)-1-[2-({6-[6-(pyrrolidin-1-yl)pyrimidin-4-yl]-1H-benzimidazol-2-yl}amino)pyridin-4-yl]ethyl}piperazin-1-yl)methanone], the IC50 amounted to 0.33 nM.

In the case of `CC(C)(C)OC(=O)N1CCN(Cc2ccnc(Nc3nc4ccc(-c5cc(NCC6CC6)ncn5)cc4[nH]3)c2)CC1` [Example 142.01, tert-butyl 4-({2-[(6-{6-[(cyclopropylmethyl)amino]pyrimidin-4-yl}-1H-benzimidazol-2-yl)amino]pyridin-4-yl}methyl)piperazine-1-carboxylate], the IC50 came to 7.5 nM.
